Results from paper PMC8998838, “Functional Characterization of the Solute Carrier LAT-1 (SLC7A5/SLC2A3) in Human Brain Capillary Endothelial Cells with Rapid UPLC-MS/MS Quantification of Intracellular Isotopically Labelled L-Leucine” (International Journal of Molecular Sciences, 2022).

Biological target: T1, L-type amino acid transporter 1 (LAT-1/SLC7A5) (Homo sapiens, UniProt Q01650)
T1 construct: with CD98 (4F2hc; SLC3A2, also printed as SLC2A3)
Assay: inhibition of [[…]6, […]]-L-leucine uptake in hCMEC/D3 cells, UPLC-MS/MS
Assay type: cell-based

T1 sequence (Q01650 whole entry): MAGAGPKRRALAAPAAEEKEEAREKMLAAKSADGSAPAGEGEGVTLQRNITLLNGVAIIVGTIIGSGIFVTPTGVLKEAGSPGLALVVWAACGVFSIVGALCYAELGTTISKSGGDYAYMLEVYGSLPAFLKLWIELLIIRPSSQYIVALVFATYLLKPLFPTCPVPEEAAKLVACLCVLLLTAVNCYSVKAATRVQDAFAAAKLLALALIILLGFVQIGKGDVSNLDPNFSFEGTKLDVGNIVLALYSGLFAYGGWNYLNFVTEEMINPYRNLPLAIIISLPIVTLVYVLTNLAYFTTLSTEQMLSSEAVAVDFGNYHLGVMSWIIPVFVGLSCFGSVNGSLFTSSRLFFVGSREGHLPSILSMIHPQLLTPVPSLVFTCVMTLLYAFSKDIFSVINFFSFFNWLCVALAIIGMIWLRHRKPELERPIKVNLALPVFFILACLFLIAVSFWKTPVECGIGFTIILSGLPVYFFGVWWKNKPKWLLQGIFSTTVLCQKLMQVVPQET
T1 sequence (P08195 103-630 partner): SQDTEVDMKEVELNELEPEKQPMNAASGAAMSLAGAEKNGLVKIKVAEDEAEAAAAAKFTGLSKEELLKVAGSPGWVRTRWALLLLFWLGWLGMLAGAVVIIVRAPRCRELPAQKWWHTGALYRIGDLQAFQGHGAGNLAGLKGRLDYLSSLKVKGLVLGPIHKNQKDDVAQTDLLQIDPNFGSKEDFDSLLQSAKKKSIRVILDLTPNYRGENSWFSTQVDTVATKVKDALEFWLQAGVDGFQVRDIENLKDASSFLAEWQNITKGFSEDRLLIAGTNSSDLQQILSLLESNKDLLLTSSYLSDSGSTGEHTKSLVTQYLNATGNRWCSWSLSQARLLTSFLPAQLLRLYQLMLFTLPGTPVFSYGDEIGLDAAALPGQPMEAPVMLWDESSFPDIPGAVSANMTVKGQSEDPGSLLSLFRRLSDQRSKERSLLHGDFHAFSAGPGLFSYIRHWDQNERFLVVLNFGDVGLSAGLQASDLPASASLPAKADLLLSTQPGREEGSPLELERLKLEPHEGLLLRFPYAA

Row | IC50 [µM] | Compound
1 | 91 ± 39 | NC1(C(=O)O)CC2CCC1C2 (centres unmarked) [BCH, 2-aminobicyclo-(2,2,1)-heptane-2-carboxylic acid]
2 | 0.103 ± 0.015 | Nc1cc(COc2c(Cl)cc(C[C@H](N)C(=O)O)cc2Cl)c2oc(-c3ccccc3)nc2c1 [JPH203]
